Assay results published in patent US10577362B2, “Substituted 2, 4-diamino-quinoline derivatives for use in the treatment of proliferative diseases” (GENOSCIENCE PHARMA, priority 2016, dated 2020).

Legend:
Format in all cases: cell-based, human
[1] = system: 786-O (renal adenocarcinoma) cell line; assay: CellTiter-Glo luminescent cell viability assay, 786-O; settings: Homo sapiens, 786-0; for viability at 4 µM / viability at 10 µM: 786-O, 72 h; for viability at 4 µM: compound at 4 μM; for viability at 10 µM: compound at 10 μM; for EC50: 786-O cell line, 72 h incubation, CellTiter-Glo, read-out: EC50, growth inhibition of 786-O
Outline: (§1)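 Cells were cultured at 37 °C, 5% CO2 with 10% FBS; adherent lines were plated overnight, suspension MOLM-14 plated 1 h before dosing. Compounds in H2O or DMSO were added at various concentrations for 72 h, and viability was read by luminescence. EC50 is the dose reducing signal to 50% of diluent control.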

[2] = system: Huh7 (hepatocellular carcinoma) cell line; assay: CellTiter-Glo luminescent cell viability assay, Huh7; settings: Homo sapiens, Huh-7; for viability at 4 µM: Huh7, compound at 4 μM; for viability at 4 µM / viability at 10 µM: 72 h; for viability at 10 µM: Huh7, compound at 10 μM; for EC50: Huh7 cell line, 72 h incubation, CellTiter-Glo, read-out: EC50, growth inhibition of Huh7
Outline: (§2)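 72 h compound exposure, 37 °C, 5% CO2, 10% FBS medium; ATP luminescence read after 30 min RT equilibration. Viability as % of H2O/DMSO diluent control; EC50 = dose giving 50% of control signal. Duplicate points minimum.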

[3] = system: HepG2 (hepatocellular carcinoma) cell line; assay: CellTiter-Glo luminescent cell viability assay, HepG2; settings: Homo sapiens; for viability at 4 µM / viability at 10 µM: HepG2, HepG, 72 h; for viability at 4 µM: compound at 4 μM; for viability at 10 µM: compound at 10 μM; for EC50: HepG2 cell line, 72 h incubation, CellTiter-Glo, read-out: EC50, growth inhibition of HepG2
Outline: as §2

[4] = system: A375 (malignant melanoma) cell line; assay: CellTiter-Glo luminescent cell viability assay, A375; settings: Homo sapiens, A-375; for viability at 4 µM: A375, compound at 4 μM; for viability at 4 µM / viability at 10 µM: 72 h; for viability at 10 µM: A375, compound at 10 μM; for EC50: A375 cell line, 72 h incubation, CellTiter-Glo, read-out: EC50, growth inhibition of A375
Outline: as §1

[5] = system: HCT-116 (colorectal carcinoma) cell line; assay: CellTiter-Glo luminescent cell viability assay, HCT-116; settings: Homo sapiens; for viability at 4 µM: HCT-116, compound at 4 μM; for viability at 4 µM / viability at 10 µM: 72 h; for viability at 10 µM: HCT-116, compound at 10 μM; for EC50: HCT-116 cell line, 72 h incubation, CellTiter-Glo, read-out: EC50, growth inhibition of HCT-116
Outline: as §1

[6] = system: MOLM-14 (acute myeloid leukemia) cell line; assay: CellTiter-Glo luminescent cell viability assay, MOLM-14; settings: Homo sapiens; for viability at 4 µM: MOLM-14, compound at 4 μM; for viability at 4 µM / viability at 10 µM: 72 h; for viability at 10 µM: MOLM-14, compound at 10 μM; for EC50: MOLM-14 cell line, 72 h incubation, CellTiter-Glo, read-out: EC50, growth inhibition of MOLM-14
Outline: as §2

Structure (SMILES) | viability at 4 µM [1] | viability at 10 µM [1] | viability at 4 µM [2] | viability at 10 µM [2] | viability at 4 µM [3] | viability at 10 µM [3] | viability at 4 µM [4] | viability at 10 µM [4] | viability at 4 µM [5] | viability at 10 µM [5] | viability at 4 µM [6] | viability at 10 µM [6] | EC50 [1] | EC50 [2] | EC50 [3] | EC50 [4] | EC50 [5] | EC50 [6]
Cc1ccc(Nc2nc3ccccc3c(N3CCC(NC(C)(C)C)CC3)c2C#N)cc1 [Compound 3248CN, 2-(4-methylphenylamino)-3-cyano-4-[4-(tert-butylamino)piperidin-1-yl]quinoline] | 100% | 27.7% | 89.3% | 56.3% | 109% | 73.1% | 79.2% | 0.4% | 88.9% | 0.5% | 88.5% | 53.4% | – | – | – | – | – | –
CC(C)(C)NC1CCN(c2c(C#N)c(Nc3ccc(Cl)cc3)nc3ccccc23)CC1 [Compound 3258CN, 2-(4-chlorophenylamino)-3-cyano-4-[4-(tert-butylamino)piperidin-1-yl]quinoline] | 4.4% | 0.7% | 73.8% | 1.8% | 44.3% | 0.8% | 9.7% | 0.8% | 0.7% | 0.6% | 79.8% | 1% | 0.5 to 5 µM | 0.5 to 5 µM | 0.5 to 5 µM | 0.5 to 5 µM | 0.5 to 5 µM | 0.5 to 5 µM
CC(C)(C)NC1CCN(c2c(C#N)c(Nc3ccc(OC(F)(F)F)cc3)nc3ccccc23)CC1 [Compound 3266CN, 2-[4-(trifluoromethyloxy)phenylamino]-3-cyano-4-[4-(tert-butylamino)piperidin-1-yl]quinoline] | 28.1% | 3.8% | 78% | 49.1% | 60.6% | 24.9% | 48.1% | 21.1% | 17.7% | 4.7% | 91.4% | 50.3% | – | – | – | – | – | –
Cn1ncnc1Nc1nc2ccccc2c(N2CCC(NC(C)(C)C)CC2)c1C#N [Compound 3270CN, 2-[(1-methyl-1H-1,2,4-triazol-5-yl)amino]-3-cyano-4-[4-(tert-butylamino)piperidin-1-yl]quinoline] | 52.6% | 34.7% | 79.6% | 32.3% | 37.5% | 24.1% | 49.2% | 31% | 47.4% | 6.3% | 33.2% | 1% | 5 to 10 µM | 5 to 10 µM | 0.5 to 5 µM | 0.5 to 5 µM | – | 0.5 to 5 µM
Cc1cc(C)nc(Nc2ccc(Nc3nc4ccccc4c(N4CCC(NC(C)(C)C)CC4)c3C#N)cc2)n1 [Compound 3276CN, 2-{4-[(4,6-dimethylpyrimidin-2-yl)amino]phenylamino}-3-cyano-4-[4-(tert-butylamino)piperidin-1-yl]quinoline] | 4.5% | 0.9% | 41.2% | 1% | 38.5% | 0.9% | 2.9% | 1% | 0.9% | 0.9% | 51.9% | 1% | 0.5 to 5 µM | 0.5 to 5 µM | 0.5 to 5 µM | 0.5 to 5 µM | 0.5 to 5 µM | 0.5 to 5 µM
Cc1nccnc1OC1CCCN(c2c(C#N)c(NCc3ccc(Cl)cc3)nc3ccccc23)C1 (centres unmarked) [Compound 3328CN, 2-(4-chlorobenzylamino)-3-cyano-4-{3-[(3-methylpyrazin-2-yl)oxy]piperidin-1-yl}quinoline] | 93.8% | 85.5% | 125% | 104% | 98.8% | 90.8% | 92.7% | 87.3% | 93.2% | 82.3% | 105% | 95.4% | – | – | – | – | – | –
